Results: ChEMBL document CHEMBL1862790, “Optimisation of fenarimol series for the treatment of Chagas disease”

Experiments:
[1] = DNDI: Cytotoxicity against L-6 rat myoblasts from skeletal muscle cells; conditions: L6 rat skeletal muscle myoblast cells, IC50
[2] = system: Trypanosoma cruzi; experiment: microbe, parasite or virus in culture; type: functional, organism-based, Tulahuen LacZ, Clone C4; conditions: Trypanosoma cruzi, Tulahuen LacZ, Clone C4
[3] = system: Trypanosoma cruzi; experiment: microbe, parasite or virus in culture; type: functional, Tulahuen LacZ, Clone C4; conditions: Trypanosoma cruzi, Tulahuen LacZ, Clone C4

Row | SMILES | IC50 [1] [nM] | IC50 [2] [nM] | IC90 [3] [nM]
1 | O=S(=O)(NC1CCN(C(c2cnccn2)c2ccc(F)cc2F)CC1)c1ccccc1 (configuration not stated) | 67700 | 470 | 880
2 | O=S(=O)(NC1CCN(C(c2ccc(C(F)(F)F)cc2)c2cnccn2)CC1)c1ccccc1 (configuration not stated) | 55900 | 260 | 900
3 | O=C(NC1CCN(C(c2cnccn2)c2ccc(F)cc2F)CC1)c1ccc(Cl)cc1 (configuration not stated) | 66900 | 270 | 760
4 | CS(=O)(=O)N1CCC(CNC(c2ccc(C(F)(F)F)cc2)c2cnccn2)CC1 (configuration not stated) | > 100000 | 450 | 940
5 | CCS(=O)(=O)NC1CCN(C(c2cnccn2)c2ccc(F)cc2F)CC1 (configuration not stated) | > 100000 | 1890 | 5420
6 | CC(=O)NC1CCN(C(c2ccc(C(F)(F)F)cc2)c2cnccn2)CC1 (configuration not stated) | > 100000 | 1440 | 3170
7 | O=S(=O)(c1ccc(Cl)cc1)N1CCN(C(c2ccc(Cl)cc2)c2cncnc2)CC1 (configuration not stated) | 29000 | 130 | 460
8 | O=C(NC1CCN(C(c2ccc(C(F)(F)F)cc2)c2cnccn2)CC1)c1ccccc1 (configuration not stated) | > 100000 | 200 | 720
9 | OC(c1ccc(Cl)cc1)(c1cccnc1)c1cnc(Cl)s1 (configuration not stated) | > 100000 | 490 | > 1000
10 | CC(C)CC(=O)NC1CCN(C(c2cnccn2)c2ccc(F)cc2F)CC1 (configuration not stated) | > 100000 | > 1000 | > 1000
11 | O=C(NC1CCN(C(c2cnccn2)c2ccc(F)cc2F)CC1)c1ccc(C(F)(F)F)cc1 (configuration not stated) | 63600 | 460 | 900
12 | O=S(=O)(Cc1ccccc1)N1CCN(C(c2ccc(Cl)cc2)c2cncnc2)CC1 (configuration not stated) | 63000 | 220 | 620
13 | CC(=O)NC1CCN(C(c2cnccn2)c2ccc(F)cc2F)CC1 (configuration not stated) | > 100000 | > 1000 | > 1000
14 | CS(=O)(=O)NC1CCN(C(c2ccc(C(F)(F)F)cc2)c2cnccn2)CC1 (configuration not stated) | > 100000 | 1220 | 3020
15 | O=C1OC(c2ccc(Cl)cc2)(c2cccnc2)c2ccccc21 (configuration not stated) | 84800 | 230 | 870
16 | O=C(NC1CCN(C(c2ccc(C(F)(F)F)cc2)c2cnccn2)CC1)C1CCCCC1 (configuration not stated) | > 100000 | 250 | 870
17 | O=S(=O)(C1CCCCC1)N1CCN(C(c2ccc(Cl)cc2)c2cncnc2)CC1 (configuration not stated) | 56300 | 65 | 850
18 | CC(C)(C)OC(=O)N1CCN(C(c2ccc(Cl)cc2)c2cccnc2)CC1 (configuration not stated) | 47800 | 27 | 68
19 | O=S(=O)(NC1CCN(C(c2cnccn2)c2ccc(F)cc2F)CC1)c1ccc(Cl)cc1 (configuration not stated) | 34300 | > 1000 | > 1000
20 | CCC(=O)NC1CCN(C(c2cnccn2)c2ccc(F)cc2F)CC1 (configuration not stated) | > 100000 | > 1000 | > 1000
21 | CS(=O)(=O)N1CCN(C(c2ccc(Cl)cc2)c2cncnc2)CC1 (configuration not stated) | > 100000 | 880 | 7540
22 | O=S(=O)(NC1CCN(C(c2ccc(C(F)(F)F)cc2)c2cnccn2)CC1)c1ccc(C(F)(F)F)cc1 (configuration not stated) | 18100 | 590 | > 1000
23 | O=C(NC1CCN(C(c2cnccn2)c2ccc(F)cc2F)CC1)c1ccccc1 (configuration not stated) | > 100000 | 550 | 930
24 | CC(C)CS(=O)(=O)NC1CCN(C(c2cnccn2)c2ccc(F)cc2F)CC1 (configuration not stated) | > 100000 | 750 | 3540
25 | O=C(Cc1ccccc1)NC1CCN(C(c2cnccn2)c2ccc(F)cc2F)CC1 (configuration not stated) | > 100000 | 700 | > 1000
26 | O=S(=O)(Cc1ccccc1)NC1CCN(C(c2cnccn2)c2ccc(F)cc2F)CC1 (configuration not stated) | > 100000 | 720 | > 1000
27 | CC(C)(C)OC(=O)N1CCN(C(c2ccc(Cl)cc2)c2cncnc2)CC1 (configuration not stated) | > 100000 | 130 | 280

Row | SMILES | IC50 [1] [nM] | IC50 [2] [nM] | IC90 [3] [nM]
28 | CCC(=O)N1CCN(C(c2ccc(Cl)cc2)c2cncnc2)CC1 (configuration not stated) | > 100000 | 850 | 4830
29 | CN(C)C(=O)NC1CCN(C(c2ccc(C(F)(F)F)cc2)c2cnccn2)CC1 (configuration not stated) | > 100000 | 250 | > 1000
30 | CC(C)c1ccc(S(=O)(=O)NC2CCN(C(c3ccc(C(F)(F)F)cc3)c3cnccn3)CC2)cc1 (configuration not stated) | 18400 | 520 | > 1000
31 | O=C(C1CC1)N1CCN(C(c2ccc(Cl)cc2)c2cncnc2)CC1 (configuration not stated) | > 100000 | 500 | 920
32 | CC(C)c1ccc(S(=O)(=O)NC2CCN(C(c3cnccn3)c3ccc(F)cc3F)CC2)cc1 (configuration not stated) | 25500 | 850 | > 1000
33 | CCN1CCC(NC(c2ccc(C(F)(F)F)cc2)c2cnccn2)CC1 (configuration not stated) | > 100000 | > 1000 | > 1000
34 | CC(C)(C)OC(=O)NC1CCN(C(c2cnccn2)c2ccc(F)cc2F)CC1 (configuration not stated) | > 100000 | 260 | 650
35 | O=S(=O)(NC1CCN(C(c2ccc(C(F)(F)F)cc2)c2cnccn2)CC1)c1ccc(Cl)cc1 (configuration not stated) | 18900 | 700 | > 1000
36 | O=S(=O)(NC1CCN(C(c2cnccn2)c2ccc(F)cc2F)CC1)c1ccc(C(F)(F)F)cc1 (configuration not stated) | 29400 | > 1000 | > 1000
37 | CS(=O)(=O)NC1CCN(C(c2cnccn2)c2ccc(F)cc2F)CC1 (configuration not stated) | > 100000 | 1380 | 4980
38 | O=C(C1CCCCC1)N1CCN(C(c2ccc(Cl)cc2)c2cncnc2)CC1 (configuration not stated) | > 100000 | 320 | 920
39 | CN(C)C(=O)c1cccc(C(O)(c2ccc(Cl)cc2)c2cccnc2)c1 (configuration not stated) | > 100000 | 180 | 410
40 | CC(C)S(=O)(=O)N1CCN(C(c2ccc(Cl)cc2)c2cncnc2)CC1 (configuration not stated) | > 100000 | 230 | 720
41 | CC(C)CS(=O)(=O)NC1CCN(C(c2ccc(C(F)(F)F)cc2)c2cnccn2)CC1 (configuration not stated) | 62300 | 550 | 880
42 | CC(C)(C)OC(=O)N1CCC(NC(c2cnccn2)c2ccc(F)cc2F)CC1 (configuration not stated) | > 100000 | 210 | 710
43 | CCC(=O)NC1CCN(C(c2ccc(C(F)(F)F)cc2)c2cnccn2)CC1 (configuration not stated) | > 100000 | 1040 | 7600
44 | O=S(=O)(Cc1ccccc1)NC1CCN(C(c2ccc(C(F)(F)F)cc2)c2cnccn2)CC1 (configuration not stated) | 54900 | 310 | 780
45 | O=S(=O)(c1ccc(C(F)(F)F)cc1)N1CCN(C(c2ccc(Cl)cc2)c2cncnc2)CC1 (configuration not stated) | 57000 | 290 | > 1000
46 | Clc1ccc(C(c2cncnc2)N2CCNCC2)cc1 (configuration not stated) | > 100000 | > 1000 | > 1000
47 | O=C(NC1CCN(C(c2cnccn2)c2ccc(F)cc2F)CC1)C1CCCCC1 (configuration not stated) | > 100000 | 800 | > 1000
48 | CCN(CC)C(=O)c1cccc(C(O)(c2ccc(Cl)cc2)c2cccnc2)c1 (configuration not stated) | > 100000 | 150 | 280
49 | OC(c1cccnc1)c1ccc(Cl)cc1F (configuration not stated) | > 100000 | > 1000 | > 1000
50 | CCS(=O)(=O)NC1CCN(C(c2ccc(C(F)(F)F)cc2)c2cnccn2)CC1 (configuration not stated) | > 100000 | 1140 | 6470
51 | CCC(=O)NC(c1ccc(C(F)(F)F)cc1)c1cnccn1 (configuration not stated) | > 100000 | > 1000 | > 1000
52 | CCS(=O)(=O)N1CCN(C(c2ccc(Cl)cc2)c2cccnc2)CC1 (configuration not stated) | > 100000 | 47 | 140
53 | O=C(NCc1ccccc1)c1cccc(C(O)(c2ccc(Cl)cc2)c2cccnc2)c1 (configuration not stated) | 84000 | 160 | 400
54 | CN(C)C(=O)NC1CCN(C(c2cnccn2)c2ccc(F)cc2F)CC1 (configuration not stated) | > 100000 | > 1000 | > 1000
